Values joined by “and” are separate entries in the source; they are usually repeats but may differ in a detail not shown here. Equal entries are not always repeated.
How the values were obtained:
[1] = test system: human hepatitis C virus (HCV); parameters: method as in PMID 23911854; details: at 10 μM; cited from earlier work
CEM cells = test system: CEM cells; parameters: method as in PMID 23911854; details: cited from earlier work
hepatitis B virus (HBV) = experiment: Anti-HBV activity of compound 6 (unpublished data); assay type: cell-based; details: read-out: EC50 (HBV)
in vitro [2] = experiment: in vitro
[3] = test system: SARS-CoV-2 strain BavPat1; experiment: SARS-CoV-2 assay in Vero E6 cells (CellTiter-Blue); details: 10 μM
HBV [4] = experiment: HBV assay in Huh7 cells transfected with pCI_HBVpg1820, intracapsid viral DNA by real-time PCR; assay type: cell-based, hepatitis B virus (HBV); details: for inhibition at 10 µM: Hepatitis B virus, Huh-7, 96 h
Method: In Huh7 cells: antiviral activity against HBV in cell culture was measured as previously described. Briefly, Huh7 cells were transfected with plasmid pCI_HBVpg1820 containing 1.1 unit of HBV genome under the control of a human cytomegalovirus (CMV) promoter. The drugs were stored at 1000× in DMSO at −20 °C. For each experiment, the drugs were diluted in DMEM cell culture medium (Thermo Fisher Scientific, Artenay, France) to a final concentration of 10 μM. All drugs were tested in triplicate in two independent experiments. After 4 days of culture, intracapsid viral DNA was quantified by duplex real-time PCR, using primers described elsewhere, on a LightCycler 480 II apparatus (Roche Diagnostics France, Meylan, France) using TaqMan Universal PCR Mastermix II without UNG (Thermo Fisher Scientific, Artenay, France). Cells were quantified using primers by real-time PCR, using primers HPRT1_F (5′-[…]) and HPRT1_R (5′-[…]), on a LightCycler 480 II apparatus (Roche) using a LightCycler® 480 SYBR Green I Master (Roche Diagnostics France, Meylan, France). Cycling reactions were performed with the following parameters: 5 min at 95 °C, followed by 45 cycles of 10 s at 95 °C, 15 s at 60 °C, 10 s at 72 °C. The inhibition of HBV replication (%) and cell culture viability (%) were quantified using the following formulas. Inhibition of HBV replication (%)=1− HBV DNA copy numberDrug/HBV DNA copy numberCell culture medium Cell viability (%)= HPRT1 DNA copy numberDrug/HPRT1 DNA copy numberCell culture medium

HIV-1 LAI = experiment: HIV assay in human PBM cells infected with HIV-1 LAI, RT quantification; assay type: cell-based; details: Human immunodeficiency virus 1, PBMC; 10 μM, PBM cells, HIV-1 LAI
Method: The assay was performed as described by Schinazi et al. with minor modifications. […] The supernatants were harvested, and the HIV-1 RT was quantified.

[5] = Cell culture viability in the Huh7 HBV assay (HPRT1 DNA copy number); details: human
in vitro [6] = assay type: cell-based; details: human; PBM cells; read-out: MTS Cytotoxicity (IC50, μM) PBM
Method: (§1) Assays were performed in human peripheral blood mononuclear (PBM) and human liver (HepG2) cells via MTS assay using the CellTiter 96® Non-Radioactive Cell Proliferation (Promega) kit as previously described^3. Cytotoxicity was expressed as the concentration of test compounds that inhibited cell proliferation by 50% (IC50) and calculated using the Chou and Talalay method.

[7] = Cytotoxicity MTS assay in HepG2 cells; assay type: cell-based; details: human
Method: as §1

HBV [8] = experiment: HBV assay in HepAD38 cells, real-time PCR for HBV DNA in supernatant; assay type: cell-based; details: Hepatitis B virus, 168 h, 7 days
Method: In HepAD38 cells were seeded at 50,000 cells/well in collagen-coated 96-well plates. Test compounds or 2′,3′-didéoxy-3′-thiacytidin (3TC) (control) were added to HepAD38 cells to a final concentration of 10 μM.
Real-Time PCR for HBV DNA. The experiment lasted 7 days. On day 7, total DNA was purified from the supernatant using a commercially available kit (DNeasy 96 Blood & Tissue kit, Qiagen). The HBV DNA was amplified in a real-time PCR assay using a LightCycler 480 (Roche) as described elsewhere. All samples were tested in duplicate in two to three independent experiments. Analysis: The concentration of compound that inhibited HBV DNA replication by 50% (EC50) was determined by linear regression.

in vitro [9] = details: human
[10] = read-out: HBV % Inhibition Huh7, 10 μM, Huh7 cells, 4 days
[11] = 10 μM, Huh7 cells, 4 days, read-out: HBV % Inhibition Huh7

Row | SMILES | % of inhibition (HCV) [1] | CC50 (CEM cells) | EC50 (hepatitis B virus (HBV)) | CC50 (in vitro [2]) | SARS-CoV-2 % Inhibition Vero E6 [3] | HBV % Inhibition Huh7 (HBV [4]; 10 μM, Huh7 cells, 4 days) | inhibition at 10 µM (HBV [4]; [10]) | inhibition at 10 µM (HIV-1 LAI) | viability at 4 days, 10 µM [5] | IC50 (in vitro [6]) | IC50 [7] | inhibition at 10 µM (HBV [8]) | inhibition at 10 µM (HBV [4]; [11]) | anti-HBV activity in words (HBV [4]; compared to entecavir (Huh7) and lamivudine (HepAd38)) | viability at 4 days, 10 µM (in vitro [9])
1 | CCCc1ccc(-c2cn(C/C=C/CP(=O)(OCOC(=O)C(C)(C)C)OCOC(=O)C(C)(C)C)nn2)cc1 [Compound 5] | 95.6% and 95% | 55.3 µM |  |  |  |  |  |  |  |  |  |  |  |  | 
2 | C/C(=C\CP(=O)(OCOC(=O)OC(C)C)OCOC(=O)OC(C)C)Cn1cnc2c(O)nc(N)nc21 [Compound 6, bis(POC)-(E)-2-methyl-but-2-enylguanine] |  |  | 8.5 µM | > 100 µM |  |  |  |  |  |  |  |  |  |  | 
3 | C/C(=C\CP(=O)(OCOC(=O)OC(C)C)OCOC(=O)OC(C)C)Cn1cc(C(N)=O)nn1 [Compound 11j, [[(E)-4-(4-Carbamoyltriazol-1-yl)-3-methyl-but-2-enyl]-(isopropoxycarbonyloxymethoxy)phosphoryl]oxymethyl isopropyl carbonate] |  |  |  |  | <1% | 40% | > 40% | < 1% | 100% | 76.8 µM | > 100 µM | 31.3% |  |  | 
4 | CCCCCCCC(=O)NCc1cn(C/C(C)=C/CP(=O)(OCOC(=O)OC(C)C)OCOC(=O)OC(C)C)nn1 [Compound 11k, [[(E)-4-(4-Octanoylaminomethyltriazol-1-yl)-3-methyl-but-2-enyl]-(isopropoxycarbonyloxymethoxy)phosphoryl]oxymethyl isopropyl carbonate] |  |  |  |  | 5% |  |  | 42% | 100% | 51.5 µM | 57.3 µM | 6.1% | < 1% |  | 
5 | C/C(=C\CP(=O)(OCOC(=O)OC(C)C)OCOC(=O)OC(C)C)Cn1cc(-c2ccc([N+](=O)[O-])cc2)nn1 [Compound 11l, [[(E)-4-(4-Nitrophenyltriazol-1-yl)-3-methyl-but-2-enyl]-(isopropoxycarbonyloxymethoxy)phosphoryl]oxymethyl isopropyl carbonate] |  |  |  |  | 10% | 40% | > 40% | 38.8% | 100% | 23.5 µM | 85.3 µM | 42.6% |  | good activity | 
6 | COC(=O)c1cn(C/C(C)=C/CP(=O)(OCOC(=O)OC(C)C)OCOC(=O)OC(C)C)nn1 [Compound 11n, Methyl-1-[(E)-4-[bis(isopropoxycarbonyloxymethoxy)phosphoryl]-2-methyl-but-2-enyl]triazole-4-carboxylate] |  |  |  |  | <1% |  |  | < 1% | 60% | 40.9 µM | > 100 µM | 3.9% | 28% |  | 
7 | CCOC(=O)c1cn(C/C(C)=C/CP(=O)(OCOC(=O)OC(C)C)OCOC(=O)OC(C)C)nn1 [Compound 11o, Ethyl-1-[(E)-4-[bis(isopropoxycarbonyloxymethoxy)phosphoryl]-2-methyl-but-2-enyl]triazole-4-carboxylate] |  |  |  |  | <1% |  |  | 22.4% | 60% | 67.5 µM | > 100 µM | 41.2% | < 1% |  | 
8 | CNC(=O)c1cn(C/C(C)=C/CP(=O)(OCOC(=O)OC(C)C)OCOC(=O)OC(C)C)nn1 [Compound 11p, [[(E)-4-(4-Methylcarbamoyltriazol-1-yl)-3-methyl-but-2-enyl]-(isopropoxycarbonyloxymethoxy)phosphoryl]oxymethyl isopropyl carbonate] |  |  |  |  | <1% |  |  | 36.4% | 54% | 78.3 µM | > 100 µM | < 1% | 14% |  | 
9 | CCNC(=O)c1cn(C/C(C)=C/CP(=O)(OCOC(=O)OC(C)C)OCOC(=O)OC(C)C)nn1 [Compound 11q, [[(E)-4-[4-(Ethylcarbamoyl)triazol-1-yl]-3-methyl-but-2-enyl]-(isopropoxycarbonyloxymethoxy)phosphoryl]oxymethyl isopropyl carbonate] |  |  |  |  | <1% |  |  | 31.2% | 90% | 80.6 µM | > 100 µM | < 1% | < 1% |  | 
10 | CCCCCCCCCCCCCCCCOCCCOP(=O)(C/C=C(\C)Cn1cc(-c2ccc(CCCCC)cc2)nn1)OCOC(=O)OC(C)C (stereo not drawn) [Compound 15c, [3-Hexadecyloxypropoxy-[(E)-3-methyl-4-[4-(4-pentylphenyl)triazol-1-yl]but-2-enyl]phosphoryl]oxymethyl isopropyl carbonate] |  |  |  |  | <1% |  |  | 28.2% | 47% | 50.5 µM | > 100 µM | 28.8% | 14% |  | 
11 | CCCCCCCCCCCCCCCCOCCCOP(=O)(C/C=C(\C)Cn1cc(C(N)=O)nn1)OCOC(=O)OC(C)C (stereo not drawn) [Compound 15j, [[(E)-4-(4-Carbamoyltriazol-1-yl)-3-methyl-but-2-enyl]-(3-hexadecyloxypropoxy)phosphoryl]oxymethyl isopropyl carbonate] |  |  |  |  | <1% |  |  | 32.2% | 74% | 43.1 µM | 66.4 µM | < 1% | 62% |  | 
12 | C=C1[C@H](CO)[C@@H](O)C[C@@H]1n1cnc2c(=O)[nH]c(N)nc21 [Entecavir, reference compound] |  |  |  |  |  |  |  |  |  |  |  |  | 92% |  | 96%
